Biological target: IDO1 (Homo sapiens, UniProt P14902)
Experiment: IDO1 Cellular Assay in HeLa Cells Stimulated with IFNγ
Type: cell-based
Conditions: read-out: HeLa Cell Potency, IC50
Method: IDO1 Cellular Assay in HeLa Cells Stimulated with IFNγ
HeLa cells were cultured in complete HeLa culture medium (90% EMEM, 10% heat-inactivated fetal bovine serum) and expanded to about 1×10^9 cells. The cells were then collected and frozen down at 1×10^7 cells/vial in 1 mL frozen medium (90% complete HeLa culture medium, 10% DMSO).
Compounds to be tested were serially diluted in ten 3-fold steps in DMSO starting from 10 mM DMSO stocks in Echo low volume plate(s). Compound dilutions or DMSO alone were then dispensed from the dilution plate(s) into Greiner black 384-well assay plate(s) (catalog #781086, 50 nL/well) using an Echo 550 acoustic liquid handler (Labcyte).
Frozen HeLa cells were thawed and transferred into HeLa assay medium (99% complete HeLa culture medium, 1% Pen/Strep) with 20 mL medium/vial of cells. The cells were spun down at 250 g in a table top centrifuge for 5 min and suspended in same volume of HeLa assay medium. The cells were then counted and adjusted to a density of 2×10^5 cells/mL in HeLa assay medium. Sterile L-tryptophan were added to the cells with final concentration of 300 uM L-tryptophan. A small aliquot (2 mL/plate) of HeLa cells were set aside and were not treated with IFNγ, to serve as the Max-E control.
HeLa cells with and without IFNγ were dispensed to the respective wells of 384-well assay plates containing the compounds. The plates were incubated for about 48 hours at a 37° C., 5% CO2 incubator. Afterwards, 12 μL of 0.5 M methyl isonipecotate in dimethyl sulfoxide were added into each well and the plates were sealed and incubated at 37° C. without CO2 overnight. The plates were centrifuged for 1 min at 200×g. The resulting fluorescence was measured in a Spectramax plate reader (Molecular Devices) with a 400 nm excitation filter and a 510 nm emission filter.
The fluorescence intensity of each well was corrected for the background observed in wells with non-IFNγ-treated cells and was expressed as a fraction of the intensity observed in wells of IFNγ-treated cells and DMSO only. Potencies were calculated by linear least squares fit to the four parameter logistic IC50 equation.

IDO1, sequence (P14902 whole entry): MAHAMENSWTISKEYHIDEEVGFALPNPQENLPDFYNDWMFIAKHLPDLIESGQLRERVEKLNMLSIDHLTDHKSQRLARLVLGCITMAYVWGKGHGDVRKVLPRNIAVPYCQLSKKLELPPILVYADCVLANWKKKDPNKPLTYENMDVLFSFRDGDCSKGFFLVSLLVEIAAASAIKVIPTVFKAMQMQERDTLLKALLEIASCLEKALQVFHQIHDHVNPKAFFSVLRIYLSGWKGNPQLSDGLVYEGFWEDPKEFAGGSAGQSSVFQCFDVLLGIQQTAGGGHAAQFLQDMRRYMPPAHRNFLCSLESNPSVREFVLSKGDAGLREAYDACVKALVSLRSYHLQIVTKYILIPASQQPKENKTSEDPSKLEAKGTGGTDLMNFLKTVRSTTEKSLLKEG

| SMILES | IC50 [nM] |
| --- | --- |
| O=C(Cn1nc(C(=O)N2CCC(O)CC2)c2c1CCC2)N1CCN(C2CCc3ccccc32)CC1 (single isomer, unassigned) [Example 436, 1-(4-(2,3-dihydro-1H-inden-1-yl)piperazin-1-yl)-2-(3-(4-hydroxypiperidine-1-carbonyl)-5,6-dihydrocyclopenta[c]pyrazol-1(4H)-yl)ethanone] | 22.8 |
| O=C(Cn1nc(C(=O)N2CCC(O)CC2)c2c1CCC2)N1CCN(C2CCc3ccccc32)CC1 (single isomer, unassigned) [Example 437, 1-(4-(2,3-dihydro-1H-inden-1-yl)piperazin-1-yl)-2-(3-(4-hydroxypiperidine-1-carbonyl)-5,6-dihydrocyclopenta[c]pyrazol-1(4H)-yl)ethanone] | 810 |
| O=C(Cn1nc(C(=O)N2CC[C@H](O)[C@H](F)C2)c2c1CCC2)N1CCN(C2CCc3ccccc32)CC1 (single isomer, unassigned) [Example 439] | 168 |
| O=C(Cn1nc(C(=O)N2CC[C@H](O)[C@H](F)C2)c2c1CCC2)N1CCN(C2CCc3ccccc32)CC1 (single isomer, unassigned) [Example 440] | 2520 |
| Cc1cccc(N2CCN(C(=O)Cn3nc(C(=O)N4CCC(O)(CF)C4)c4c3CCC4)CC2)c1C (single isomer, unassigned) [Example 482, (R or S)-1-(4-(2,3-dimethylphenyl)piperazin-1-yl)-2-(3-(3-(fluoromethyl)-3-hydroxypyrrolidine-1-carbonyl)-5,6-dihydro-cyclopenta[c]pyrazol-1(4H)-yl)ethanone] | 22.3 |
| Cc1cccc(N2CCN(C(=O)Cn3nc(C(=O)N4CCC(O)(CF)C4)c4c3CCC4)CC2)c1C (single isomer, unassigned) [Example 484, (S or R)-1-(4-(2,3-dimethylphenyl)piperazin-1-yl)-2-(3-(3-fluoromethyl)-3-hydroxypyrrolidine-1-carbonyl)-5,6-dihydrocyclopenta[c] pyrazol-1(4H)-yl) ethanone] | 42.6 |
| Cc1cccc(N2CCN(C(=O)C(C)n3nc(C(=O)N4CCC(O)CC4)c4c3CCC4)CC2)c1C (single isomer, unassigned) [Example 489, (R or S)-1-(4-(2,3-dimethylphenyl)piperazin-1-yl)-2-(3-(4-hydroxypiperidine-1-carbonyl)-5,6-dihydro-cyclopenta[c]pyrazol-1(4H)-yl)propan-1-one] | 393 |
| Cc1cccc(N2CCN(C(=O)Cn3nc(C(=O)N4CC[C@H](N5CCC(O)CC5)[C@H](F)C4)c4c3CC(F)(F)CC4)CC2)c1C (stereo in doubt) [Example 23, 2-[6,6-difluoro-3-[rac-(3R,4S)-3-fluoro-4-(4-hydroxy-1-piperidyl)piperidine-1-carbonyl]-5,7-dihydro-4H-indazol-1-yl]-1-[4-(2,3-dimethylphenyl)piperazin-1-yl]ethanone] | 77.5 |
| Cc1cccc(N2CCN(C(=O)Cn3nc(C(=O)N4CC[C@@H](N5CCC(O)CC5)[C@@H](F)C4)c4c3CC(F)(F)CC4)CC2)c1C (stereo in doubt) [Example 24, 2-[6,6-difluoro-3-[rac-(3S,4R)-3-fluoro-4-(4-hydroxy-1-piperidyl)piperidine-1-carbonyl]-5,7-dihydro-4H-indazol-1-yl]-1-[4-(2,3-dimethylphenyl)piperazin-1-yl]ethanone] | 195 |
| Cc1c(Cl)cccc1N1CCN(C(=O)Cn2nc(C(=O)N3CC[C@H](O)C(C)C3)c3c2C[C@H]2C[C@@H]32)CC1 (stereo in doubt) [Example 351, 1-(4-(3-chloro-2-methylphenyl)piperazin-1-yl)-2-((3bR,4aR)-3-((3S,4S)-4-hydroxy-3-methylpiperidine-1-carbonyl)-3b,4,4a,5-tetrahydro-1H-cyclopropa[3,4]cyclopenta[1,2-c]pyrazol-1-yl)ethanone] | 1.26 |
| Cc1c(Cl)cccc1N1CCN(C(=O)Cn2nc(C(=O)N3CCC(O)C(C)C3)c3c2C[C@H]2C[C@@H]32)CC1 (stereo in doubt) [Example 353, 1-(4-(3-chloro-2-methylphenyl)piperazin-1-yl)-2-((3bR,4aR)-3-((3R,4S)-4-hydroxy-3-methylpiperidine-1-carbonyl)-3b,4,4a,5-tetrahydro-1H-cyclopropa[3,4]cyclopenta[1,2-c]pyrazol-1-yl)ethanone] | 1.18 |
| Cc1cccc(N2CCN(C(=O)Cn3nc(C(=O)N4CCC(O)C(F)C4)c4c3C[C@H]3C[C@@H]43)C3(CC3)C2)c1C (stereo in doubt) [Example 361, 1-(7-(2,3-dimethylphenyl)-4,7-diazaspiro[2.5]octan-4-yl)-2-((3bR,4aR)-3-((3S,4S)-3-fluoro-4-hydroxypiperidine-1-carbonyl)-3b,4,4a,5-tetrahydro-1H-cyclopropa[3,4]cyclopenta[1,2-c]pyrazol-1-yl)ethanone] | 3.01 |
| Cc1cccc(N2CCN(C(=O)Cn3nc(C(=O)N4CCCC4)c4c3CC(C)(C)CC4)CC2)c1C [Example 3, 1-[4-(2,3-dimethylphenyl)piperazin-1-yl]-2-[6,6-dimethyl-3-(pyrrolidine-1-carbonyl)-5,7-dihydro-4H-indazol-1-yl]ethanone] | 130 |
| Cc1cccc(N2CCN(C(=O)Cn3nc(C(=O)N4CCCC4)c4c3CCOC4)CC2)c1C [Example 4, 1-[4-(2,3-dimethylphenyl)piperazin-1-yl]-2-[3-(pyrrolidine-1-carbonyl)-6,7-dihydro-4H-pyrano[4,3-c]pyrazol-1-yl]ethanone] | 165 |
| Cc1cccc(N2CCN(C(=O)Cn3nc(C(=O)N4CCCC4)c4c3CCC(F)(F)C4)CC2)c1C [Example 6, 2-(5,5-difluoro-3-(pyrrolidine-1-carbonyl)-4,5,6,7-tetrahydro-1H-indazol-1-yl)-1-(4-(2,3-dimethylphenyl)piperazin-1-yl)ethanone] | 8.13 |
| Cc1cccc(N2CCN(C(=O)Cn3nc(C(=O)N4CC[C@H](O)[C@H](F)C4)c4c3C(F)(F)CCC4)CC2)c1C [Example 20, 2-(7,7-Difluoro-3-((3R,4S)-3-fluoro-4-hydroxypiperidine-1-carbonyl)-4,5,6,7-tetrahydro-1H-indazol-1-yl)-1-(4-(2,3-dimethylphenyl)piperazin-1-yl)ethanone] | 381 |
| Cc1cccc(N2CCN(C(=O)Cn3nc(C(=O)N4CCC(O)CC4)c4c3CC(F)(F)CC4)CC2)c1C [Example 21, 2-(6,6-difluoro-3-(4-hydroxypiperidine-1-carbonyl)-4,5,6,7-tetrahydro-1H-indazol-1-yl)-1-(4-(2,3-dimethylphenyl)piperazin-1-yl)ethanone] | 5.13 |
| Cc1cccc(N2CCN(C(=O)Cn3nc(C(=O)N4CCN(C(=O)CO)CC4)c4c3CC(F)(F)CC4)CC2)c1C [Example 22, 2-[6,6-difluoro-3-[4-(2-hydroxyacetyl)piperazine-1-carbonyl]-5,7-dihydro-4H-indazol-1-yl]-1-[4-(2,3-dimethylphenyl)piperazin-1-yl]ethanone] | 27.5 |
| Cc1cc(C#N)ccc1N1CCN(C(=O)Cn2nc(C(=O)N3C[C@@H](C)O[C@@H](C)C3)c3c2CCC3)CC1 [Example 26, 4-[4-[2-[3-[(2S,6R)-2,6-dimethylmorpholine-4-carbonyl]-5,6-dihydro-4H-cyclopenta[c]pyrazol-1-yl]acetyl]piperazin-1-ium-1-yl]-3-methyl-benzonitrile,2,2,2-trifluoroacetate] | 478 |
| COc1c(F)cc(N2CCN(C(=O)Cn3nc(C(=O)N4C[C@@H](C)O[C@@H](C)C4)c4c3CCC4)CC2)cc1F [Example 27, 1-[4-(3,5-difluoro-4-methoxyphenyl)piperazin-1-yl]-2-{3-[(2R,6S)-2,6-dimethylmorpholine-4-carbonyl]-5,6-dihydrocyclopenta[c]pyrazol-1(4H)-yl}ethan-1-one] | 110 |
| C[C@@H]1CN(C(=O)c2nn(CC(=O)N3CCN(c4ccc(F)cc4)CC3)c3c2CCC3)C[C@H](C)O1 [Example 28, 2-{3-[(2R,6S)-2,6-dimethylmorpholine-4-carbonyl]-5,6-dihydrocyclopenta[c]pyrazol-1(4H)-yl}-1-[4-(4-fluorophenyl)piperazin-1-yl]ethan-1-one] | 337 |
| COc1cccc(N2CCN(C(=O)Cn3nc(C(=O)N4C[C@@H](C)O[C@@H](C)C4)c4c3CCC4)CC2)c1 [Example 29, 2-{3-[(2R,6S)-2,6-dimethylmorpholine-4-carbonyl]-5,6-dihydrocyclopenta[c]pyrazol-1(4H)-yl}-1-[4-(3-methoxyphenyl)piperazin-1-yl]ethan-1-one] | 316 |
| C[C@@H]1CN(C(=O)c2nn(CC(=O)N3CCN(c4cc(F)cc(F)c4F)CC3)c3c2CCC3)C[C@H](C)O1 [Example 30, 2-{3-[(2R,6S)-2,6-dimethylmorpholine-4-carbonyl]-5,6-dihydrocyclopenta[c]pyrazol-1(4H)-yl}-1-[4-(2,3,5-trifluorophenyl)piperazin-1-yl]ethan-1-one] | 474 |
